Data from ChEMBL document CHEMBL3046640, “Synthesis and antimicrobial activity of bischalcone derivatives” (2013).
In brackets after ≈: the same amount, converted by molar mass. Activity calls are given as the source filed them. The calls are words filed in the database; no cut-off is given here.

Key:
Type in all cases: functional
Escherichia coli [1] = test: Antibacterial activity against Escherichia coli ATCC 25922 assessed as growth inhibition at 100 ug/mL after 24 hr by cup-plate method; settings: ATCC 25922, 24 h, read-out: DIZ
Pseudomonas aeruginosa [2] = test: Antibacterial activity against Pseudomonas aeruginosa ATCC 27853 assessed as growth inhibition at 100 ug/mL after 24 hr by cup-plate method; settings: ATCC 27853, 24 h, read-out: DIZ
Rhizopus arrhizus [3] = test: Antifungal activity against Rhizopus oryzae MTCC 262 assessed as growth inhibition at 100 ug/mL after 3 to 4 days by agar diffusion method; settings: read-out: DIZ
Pseudomonas aeruginosa [4] = test: Antibacterial activity against Pseudomonas aeruginosa ATCC 27853 assessed as growth inhibition after 24 hr by broth dilution method; settings: ATCC 27853, 24 h
Staphylococcus aureus [5] = test: Antibacterial activity against Staphylococcus aureus ATCC 25923 assessed as growth inhibition after 24 hr by broth dilution method; settings: ATCC 25923, 24 h
Candida albicans [6] = test: Antifungal activity against Candida albicans ATCC 10231 assessed as growth inhibition at 100 ug/mL after 3 to 4 days by agar diffusion method; settings: read-out: DIZ
Aspergillus niger [7] = test: Antifungal activity against Aspergillus niger ATCC 16404 assessed as growth inhibition at 100 ug/mL after 3 to 4 days by agar diffusion method; settings: read-out: DIZ
Aspergillus niger [8] = test: Antifungal activity against Aspergillus niger ATCC 16404 assessed as growth inhibition after 48 hr by broth dilution method
Candida albicans [9] = test: Antifungal activity against Candida albicans ATCC 10231 assessed as growth inhibition after 48 hr by broth dilution method; settings: ATCC 10231, 48 h
Escherichia coli [10] = test: Antibacterial activity against Escherichia coli ATCC 25922 assessed as growth inhibition after 24 hr by broth dilution method; settings: ATCC 25922, 24 h
Rhizopus arrhizus [11] = test: Antifungal activity against Rhizopus oryzae MTCC 262 assessed as growth inhibition after 48 hr by broth dilution method
Staphylococcus aureus [12] = test: Antibacterial activity against Staphylococcus aureus ATCC 25923 assessed as growth inhibition at 100 ug/mL after 24 hr by cup-plate method; settings: ATCC 25923, 24 h, read-out: DIZ

MIC (Pseudomonas aeruginosa [4])	MIC (Staphylococcus aureus [5])	MIC (Aspergillus niger [8]; ATCC 16404, 48 h)	MIC (Candida albicans [9])	MIC (Escherichia coli [10])	MIC (Rhizopus arrhizus [11]; MTCC 262, 48 h)	MIC (Aspergillus niger [8])	MIC (Rhizopus arrhizus [11])	Structure (SMILES)	zone of inhibition at 100 µg/mL (Escherichia coli [1])	zone of inhibition at 100 µg/mL (Pseudomonas aeruginosa [2])	zone of inhibition at 100 µg/mL (Rhizopus arrhizus [3])	zone of inhibition at 100 µg/mL (Candida albicans [6])	zone of inhibition at 100 µg/mL (Aspergillus niger [7])	zone of inhibition at 100 µg/mL (Staphylococcus aureus [12])
> 100 µg/mL	50 µg/mL (≈ 97.5 µM)	> 100 µg/mL	50 µg/mL (≈ 97.5 µM)	50 µg/mL (≈ 97.5 µM)	> 100 µg/mL	–	–	CCN(CC)c1ccc(/C=C/C(=O)c2cc(C(=O)/C=C/c3ccc(N(CC)CC)cc3)c(O)cc2O)cc1	10 mm	5 mm	5 mm	10 mm	5 mm	10 mm
50 µg/mL (≈ 117 µM)	50 µg/mL (≈ 117 µM)	25 µg/mL (≈ 58.6 µM)	25 µg/mL (≈ 58.6 µM)	> 100 µg/mL	25 µg/mL (≈ 58.6 µM)	–	–	COc1cccc(-c2cc(=O)c3cc4c(=O)cc(-c5cccc(OC)c5)oc4cc3o2)c1	5 mm	10 mm	15 mm	15 mm	15 mm	10 mm
> 100 µg/mL	> 100 µg/mL	–	> 100 µg/mL	50 µg/mL (≈ 86.4 µM)	–	inactive	inactive	COc1cc(OC)c(C(=O)/C=C/c2cc(OC)c(OC)c(OC)c2)cc1C(=O)/C=C/c1cc(OC)c(OC)c(OC)c1	10 mm	5 mm	< 5 mm	5 mm	< 5 mm	5 mm
